According to the RepoRT retention time repository:

assay: A: acetonitrile + 0.1% formic acid + 10 mM ammonium formate; B: 5% water + 95% acetonitrile + 0.1% formic acid + 10 mM ammonium formate; gradient (min/%B) 0/10 2/10 22/100 27/100 27.1/10; conditions: stereoisomer not certain

Row | LC retention time | Compound
1 | 0.431 min | COc1cc(C=CC(=O)CC(=O)C=Cc2ccc(O)c(OC)c2)ccc1O [Curcumin]
2 | 8.01 min | NC(CCSCC(N)C(=O)O)C(=O)O (centres undefined) [Cystathionine]
3 | 7.4 min | Nc1ccn(C2OC(COP(=O)(O)O)C(O)C2O)c(=O)n1 (centres undefined) [Cytidine 5'-monophosphate]
4 | 10.1 min | Nc1ccn(C2OC(COP(=O)(O)OP(=O)(O)OP(=O)(O)O)C(O)C2O)c(=O)n1 (centres undefined) [Cytidine 5'-triphosphate]
5 | 4.73 min | Nc1ccn(C2OC(CO)C(O)C2O)c(=O)n1 (centres undefined) [Cytidine]
6 | 3.35 min | Nc1ccnc(=O)[nH]1 [Cytosine]
7 | 6.72 min | N[C@H]1C(O)O[C@H](CO)[C@@H](O)[C@@H]1O (stereo partly drawn) [D-(+)-Glucosamine]
8 | 7.42 min | OCC1OC(OCC2OC(OC3(CO)OC(CO)C(O)C3O)C(O)C(O)C2O)C(O)C(O)C1O [D-(+)-Raffinose]
9 | 7.36 min | O=C(CO)[C@@H](O)[C@H](O)[C@H](O)COP(=O)(O)O [D-Fructose-6-phosphate]
10 | 8.21 min | N[C@H]1C(O)O[C@H](COP(=O)(O)O)[C@@H](O)[C@@H]1O (stereo partly drawn) [D-Glucosamine 6-phosphate]
11 | 7.76 min | O=P(O)(O)OCC1OC(O)C(O)C(O)C1O [D-Glucose 6-phosphate]
12 | 7.12 min | O=P(O)(O)OCC1OC(O)C(O)C1O [D-Ribose 5-phosphate]
13 | 0.473 min | O=c1c(-c2ccc(O)cc2)coc2cc(O)ccc12 [Daidzein]
14 | 2.64 min | O=c1[nH]cnc2c1ncn2C1CC(O)C(CO)O1 (centres undefined) [Deoxyinosine]
15 | 0.404 min | CCCCOC(=O)CCCCCCCCC(=O)OCCCC [Dibutyl sebacate]
16 | 0.456 min | O=C(O)Cc1ccccc1Nc1c(Cl)cccc1Cl [Diclofenac acid]
17 | 5.23 min | OCCNCCO [Diethanolamine]
18 | 0.43 min | CCOC(=O)CC(=O)OCC [Diethyl malonate]
19 | 0.425 min | CCOC(=O)CCC(=O)OCC [Diethyl succinate]
20 | 0.746 min | O=C1CCNC(=O)N1 [Dihydrouracil]
21 | 6.59 min | O=C(CO)COP(=O)(O)O [Dihydroxyacetone phosphate]

Row | LC retention time | Compound
22 | 1.04 min | COc1ccc(C2Sc3ccccc3N(CCN(C)C)C(=O)C2OC(C)=O)cc1 (centres undefined) [Diltiazem]
23 | 0.944 min | CN(C)CCOC(c1ccccc1)c1ccccc1 [Diphenhydramine]
24 | 4.22 min | NCCc1ccc(O)c(O)c1 [Dopamine]
25 | 1.04 min | CN(C)CCC=C1c2ccccc2COc2ccccc21 [Doxepin]
26 | 4.34 min | CCN(Cc1cccc(S(=O)(=O)O)c1)c1ccc(C(=C2C=CC(=[N+](CC)Cc3cccc(S(=O)(=O)O)c3)C=C2)c2ccccc2S(=O)(=O)[O-])cc1 [Erioglaucine]
27 | 0.57 min | O=C1OC2(c3ccccc31)c1cc(I)c(O)c(I)c1Oc1c2cc(I)c(O)c1I [Erythrosine B]
28 | 0.422 min | CCOC(=O)c1ccc(N)cc1 [Ethyl 4-aminobenzoate]
29 | 0.418 min | CCOC(=O)CC(C)=O [Ethyl acetoacetate]
30 | 6.91 min | O=C(O)CN(CCN(CC(=O)O)CC(=O)O)CC(=O)O [Ethylenediaminetetraacetic acid]
31 | 0.453 min | CCc1cccc2c3c([nH]c12)C(CC)(CC(=O)O)OCC3 (centres undefined) [Etodolac]
32 | 2.9 min | NC(N)=Nc1nc(CSCCC(N)=NS(N)(=O)=O)cs1 [Famotidine]
33 | 0.401 min | CC(C)OC(=O)C(C)(C)Oc1ccc(C(=O)c2ccc(Cl)cc2)cc1 [Fenofibrate]
34 | 0.564 min | COc1cc(/C=C/C(=O)O)ccc1O [Ferulic acid]
35 | 7.38 min | Cc1cc2nc3c(=O)[nH]c(=O)nc-3n(CC(O)C(O)C(O)COP(=O)(O)OP(=O)(O)OCC3OC(n4cnc5c(N)ncnc54)C(O)C3O)c2cc1C (centres undefined) [Flavin Adenine Dinucleotide]
36 | 0.425 min | O=c1cc(-c2ccccc2)oc2ccccc12 [Flavone]
37 | 0.978 min | CNCCC(Oc1ccc(C(F)(F)F)cc1)c1ccccc1 (centres undefined) [Fluoxetine]
38 | 0.561 min | CC(C)n1c(C=CC(O)CC(O)CC(=O)O)c(-c2ccc(F)cc2)c2ccccc21 (centres undefined) [Fluvastatin]
39 | 5.87 min | Nc1nc2ncc(CNc3ccc(C(=O)NC(CCC(=O)O)C(=O)O)cc3)nc2c(=O)[nH]1 (centres undefined) [Folic acid]
40 | 5.94 min | Nc1nc2c(c(=O)[nH]1)N(C=O)C(CNc1ccc(C(=O)NC(CCC(=O)O)C(=O)O)cc1)CN2 (centres undefined) [Folinic acid]
41 | 0.446 min | COc1ccc(-c2coc3cc(O)ccc3c2=O)cc1 [Formononetin]
42 | 0.586 min | NS(=O)(=O)c1cc(C(=O)O)c(NCc2ccco2)cc1Cl [Furosemide]

Row | LC retention time | Compound
43 | 4.73 min | Nc1nc2c(ncn2COC(CO)CO)c(=O)[nH]1 [Ganciclovir]
44 | 0.458 min | O=c1c(-c2ccc(O)cc2)coc2cc(O)cc(O)c12 [Genistein]
45 | 0.446 min | COc1ccc(Cl)cc1C(=O)NCCc1ccc(S(=O)(=O)NC(=O)NC2CCCCC2)cc1 [Glibenclamide]
46 | 0.423 min | Cc1ccc(S(=O)(=O)NC(=O)NN2CC3CCCC3C2)cc1 (centres undefined) [Gliclazide]
47 | 0.44 min | CCC1=C(C)CN(C(=O)NCCc2ccc(S(=O)(=O)NC(=O)NC3CCC(C)CC3)cc2)C1=O (centres undefined) [Glimepiride]
48 | 0.463 min | Cc1cnc(C(=O)NCCc2ccc(S(=O)(=O)NC(=O)NC3CCCCC3)cc2)cn1 [Glipizide]
49 | 0.417 min | COc1ccc2c(c1)C(=O)N(CCc1ccc(S(=O)(=O)NC(=O)NC3CCCCC3)cc1)C(=O)C2(C)C [Gliquidone]
50 | 0.412 min | CCCC(=O)OCC(COC(=O)CCC)OC(=O)CCC [Glycerol Tributyrate]
51 | 0.406 min | CCCCCC(=O)OCC(COC(=O)CCCCC)OC(=O)CCCCC [Glycerol Trihexanoate]
52 | 4.17 min | CC(CCC(=O)NCC(=O)O)C1CCC2C3C(O)CC4CC(O)CCC4(C)C3CC(O)C12C (centres undefined) [Glycocholic acid]
53 | 2.78 min | CC(CCC(=O)NCC(=O)O)C1CCC2C3CCC4CC(O)CCC4(C)C3CC(O)C12C (centres undefined) [Glycodeoxycholic acid]
54 | 5.81 min | CC(C)C[C@H](NC(=O)CN)C(=O)O [Glycyl-L-leucine]
55 | 5.97 min | NCC(=O)N[C@@H](Cc1ccc(O)cc1)C(=O)O [Glycyl-L-tyrosine]
56 | 6.02 min | CC(C)[C@H](NC(=O)CN)C(=O)O [Glycyl-L-valine]
57 | 7.02 min | NCC(=O)NCC(=O)O [Glycyl-glycine]
58 | 0.402 min | Cc1ccc(C(C)C)cc2c(C)ccc1-2 [Guaiazulene]
59 | 6.12 min | NC(N)=NCC(=O)O [Guanidoacetic acid]
60 | 3.98 min | Nc1nc2nc[nH]c2c(=O)[nH]1 [Guanine]
61 | 9.21 min | Nc1nc2c(ncn2C2OC(COP(=O)(O)OP(=O)(O)O)C(O)C2O)c(=O)[nH]1 (centres undefined) [Guanosine 5'-diphosphate]
62 | 7.36 min | Nc1nc2c(ncn2C2OC(COP(=O)(O)O)C(O)C2O)c(=O)[nH]1 (centres undefined) [Guanosine 5'-monophosphate]
63 | 4.96 min | Nc1nc2c(ncn2C2OC(CO)C(O)C2O)c(=O)[nH]1 (centres undefined) [Guanosine]

Row | LC retention time | Compound
64 | 3.39 min | NC(=O)C(N)Cc1c[nH]c2ccccc12 (centres undefined) [H-Trp-NH2]
65 | 2.97 min | COc1ccc(C2CC(=O)c3c(O)cc(OC4OC(COC5OC(C)C(O)C(O)C5O)C(O)C(O)C4O)cc3O2)cc1O (centres undefined) [Hesperidin]
66 | 1.27 min | CCCCCC(=O)NCC(=O)O [Hexanoyl Glycine]
67 | 1.59 min | O=C(O)CNC(=O)c1ccccc1 [Hippuric acid]
68 | 7.92 min | NCCc1cnc[nH]1 [Histamine]
69 | 0.479 min | CC12CCC(=O)C=C1CCC1C2C(O)CC2(C)C1CCC2(O)C(=O)CO (centres undefined) [Hydrocortisone]
70 | 0.485 min | CC12C=CC(=O)C=C1CCC1C2C(O)CC2(C)C1CCC2(O)C(=O)CO (centres undefined) [Hydroretrocortine]
71 | 6.07 min | NCCS(=O)O [Hypotaurine]
72 | 2.29 min | O=c1[nH]cnc2nc[nH]c12 [Hypoxanthine]
73 | 0.939 min | CN(C)CCCN1c2ccccc2CCc2ccccc21 [Imipramine]
74 | 0.475 min | NC(=O)Cc1c[nH]c2ccccc12 [Indole-3-acetamide]
75 | 0.506 min | O=C(O)c1c[nH]c2ccccc12 [Indole-3-carboxylic acid]
76 | 1.31 min | OCCc1c[nH]c2ccccc12 [Indole-3-ethanol]
77 | 0.455 min | O=C(O)C(=O)Cc1c[nH]c2ccccc12 [Indole-3-pyruvic acid]
78 | 3.94 min | O=c1[nH]cnc2c1ncn2C1OC(CO)C(O)C1O (centres undefined) [Inosine]
79 | 0.767 min | CC(C)Oc1ccc2c(=O)c(-c3ccccc3)coc2c1 [Ipriflavone]
80 | 0.475 min | CCCCC1=NC2(CCCC2)C(=O)N1Cc1ccc(-c2ccccc2-c2nn[nH]n2)cc1 [Irbesartan]
81 | 3.05 min | O=C(O)c1ccncc1 [Isonicotinic acid]
82 | 4.02 min | Nc1nc2[nH]c(=O)cnc2c(=O)[nH]1 [Isoxanthopterin]
83 | 0.455 min | CC(C(=O)O)c1cccc(C(=O)c2ccccc2)c1 (centres undefined) [Ketoprofen]
84 | 0.567 min | O=C(c1ccccc1)c1ccc2n1CCC2C(=O)O (centres undefined) [Ketorolac]

Row | Compound | LC retention time
85 | CC(=O)c1c(O)cc(C)oc1=O [DehydroacetIc acid] | 0.444 min
86 | O=c1ccc2cc(OC3OC(CO)C(O)C(O)C3O)c(O)cc2o1 (centres undefined) [Esculin] | 2.52 min
87 | CCOC(=O)c1cncn1C(C)c1ccccc1 (centres undefined) [Etomidate] | 0.602 min
88 | CN(C)Cc1c[nH]c2ccccc12 [Gramine] | 1.61 min
89 | O=C(O)Cc1cnc[nH]1 [Imidazole-4(5)-acetic Acid] | 6.1 min
